Source: patent US20110033393A1, “Hydrazone Compounds and Their Use” (priority 2009, published 2011)

Tested on: GLUTag cells
Experiment: GLP-1 release using GLUTag cells (Assay 1)
Assay type: cell-based, mouse
Experimental: Mouse GLUTag cells are a native intestinal cell line which expresses TRPM5. The cell line was obtained from Dr. Daniel J. Drucker in the Division of Endocrinology, Department of Medicine, at University of Toronto, and grown in Invitrogen Dulbecco's Modified Eagle's Medium (DMEM) high glucose (Cat#: 11995) with 10% fetal bovine serum (FBS) and 1× penn/strep antibiotic mix in a 37° C. incubator with 5% CO2.
Assay 1: All reagents and media were pre-warmed to room temperature prior to the beginning of the experiment.
Seeding of Cell Plate: BD 96-well Matrigel-coated plates (Fisher, Cat #: 08-774-166) were rehydrated using 100 μL of plating media (Invitrogen Cat #: 31985) OPTI-Modified Eagle's Medium (MEM) with 10% FBS and 1× penn/strep antibiotic mix and incubated for 30 minutes in a 37° C. incubator and 5% CO2. The rehydration media was aspirated and GLUTag cells were plated at 100 ul per well at a density of 7.5×10^5 cells/ml. The plates were then incubated overnight in a 37° C. incubator and 5% CO2.
The following protocol utilized the Millipore GLP-1 ELISA Kit (Cat. #: EGLP-35K) to analyze GLP-1 secretion from GLUTag cells in the presence of TRPM5 inhibitors/enhancers and glucose.
ELISA Assay Day 1: Stock solutions and dilution plates of TRPM5 inhibitors or enhancers were prepared. […]

`Cc1cc(/C=N/NC(=O)C2CC2c2ccccc2)cc2cccnc12` (racemic) [Example 10, trans-N′-((8-Methylquinolin-6-yl)methylene)-2-phenylcyclopropanecarbohydrazide] was tested. Which GLP-1 secretion (in the presence of 0.1 mM glucose) did it give?
Its GLP-1 secretion is “is not observed”.

What about the GLP-1 secretion (in the presence of 0.3 mM glucose) of the same compound?
Its GLP-1 secretion is “dose-dependent increase of GLP-1 secretion”.
